Data taken from publication PMC10786919, “Design-rules for stapled peptides with in vivo activity and their application to Mdm2/X antagonists” (Nature Communications, 2024).
pEC50: −log10 of the molar value. In brackets after ≈: the same amount, converted by molar mass. Read-outs that look alike come from different tables or passages of the source. Positions of bridges follow the written chain, without caps; N, C: chain ends. Non-standard residues stand in square brackets, D forms with d. Residues, ends and D or L forms follow the SMILES beside them. R8 = C=CCCCCCC[C@@](C)(N)C(=O)O; Cba = N[C@@H](CC1CCC1)C(=O)O; S5 = C=CCCC[C@](C)(N)C(=O)O

What was measured:
[1] = system: HCT116 cells; experiment: Lactate dehydrogenase (LDH) release assay; assay type: cell-based
Summary of the method: (§1)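 Read-out was lactate dehydrogenase release, reflecting loss of membrane integrity, in reporter-engineered HCT116 cells (p53-responsive β-lactamase) seeded at 8000 cells per well. Final DMSO was 0.5%, and reported values are geometric means from three or more biological repeats.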

[2] = system: Jump-In T-REx CHO-K1 BLA cells; experiment: cells; assay type: cell-based; conditions: for pEC50: read-out: TETCHO: Counterscreen EC50
[3] = Experimental LogD (partition coefficient)
[4] = Solubility assay (kinetic solubility, PBS pH 7); assay type: physicochemical; conditions: pH 7, aqueous buffer, kinetic from dmso stock
Summary of the method: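 Values derive from peak-area ratios of sample versus a 100 µM standard, scaled by that standard's concentration.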

[5] = system: p53 responsive β-lactamase reporter in HCT116 cells; experiment: cells; assay type: cell-based; conditions: for pEC50: Homo sapiens, read-out: p53 reporter assay EC50
Summary of the method: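 Read-out used the ToxBLAzer Dual Screen for β-lactamase driven by a stably integrated p53-responsive reporter. Assay: 8000 HCT116 cells per well at 0.5% final DMSO. Reported numbers are geometric means over a minimum of three biological replicates.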

[6] = Lactate dehydrogenase (LDH) release assay; assay type: cell-based
Summary of the method: as §1

[7] = physchem
[8] = not stated, Partition Coeff LogD
[9] = pH 7, PBS, read-out: Solubility

| SMILES | EPSA [7] [A^2] | logD [3, 8] | solubility kinetic [4, 9] [µM] | pEC50 ([6]; LDH: Cytotoxicity assay EC50) | further results |
| --- | --- | --- | --- | --- | --- |
| CC(C)[C@@H](CS(=O)(=O)C(C)C)N1C(=O)[C@@](C)(CC(=O)O)C[C@H](c2cccc(Cl)c2)[C@H]1c1ccc(Cl)cc1 [AMG232] |  |  |  |  | LDH: Cytotoxicity assay % Effect ([1]; 0% FBS 4Hr): -4.2%; LDH: Cytotoxicity assay % Effect ([1]; 10% FBS 4Hr): -12.8%; LDH: Cytotoxicity assay % Effect ([1]; 10% FBS 16Hr): -18.8%; TETCHO: Counterscreen % Effect ([2]; 0% FBS 4Hr): 72.2%; TETCHO: Counterscreen % Effect ([2]; 10% FBS 4Hr): 30.6%; TETCHO: Counterscreen % Effect ([2]; 10% FBS 16Hr): -10.3%; pEC50 ([2]; T-REx-CHO-K1, 4 h, 0% FBS 4Hr): 4.34; pEC50 ([2]; T-REx-CHO-K1, 4 h, 10% FBS 4Hr): < 4.30; pEC50 ([2]; T-REx-CHO-K1, 16 h, 10% FBS 16Hr): < 4.30; logD [3]: 2.25; solubility kinetic [4]: 138 µM (≈ 78.5 µg/mL); p53 reporter assay % Effect ([5]; 0% FBS 4Hr): 95.1%; p53 reporter assay % Effect ([5]; 10% FBS 4Hr): 82.7%; p53 reporter assay % Effect ([5]; 10% FBS 16Hr): 83.6%; pEC50 ([5]; HCT-116, 4 h, 0% FBS 4Hr): 7.94; pEC50 ([5]; HCT-116, 4 h, 10% FBS 4Hr): 7.13; pEC50 ([5]; HCT-116, 16 h, 10% FBS 16Hr): 6.59 |
| CC(=O)N[C@@H](CCCCN=[N+]=[N-])C(=O)NCCC(=O)NC(C)(C)C(=O)N[C@H](C(=O)N[C@@H](Cc1ccccc1)C(=O)N[C@]1(C)CCCCCCC=CCCC[C@@](C)(C(=O)N[C@@H](CO)C(=O)N[C@@H](C)C(=O)N[C@@H](C)C(N)=O)NC(=O)[C@H](CC2CCC2)NC(=O)[C@H](CCC(N)=O)NC(=O)[C@H](C)NC(=O)[C@H](Cc2c[nH]c3ccccc23)NC(=O)[C@H](Cc2ccc(O)cc2)NC(=O)[C@H](CCC(=O)O)NC1=O)[C@@H](C)O [MP-168] | 228 | 2.81 | 79.5 (≈ 154 µg/mL) |  | pEC50 ([6]; 0% FBS 4Hr, read-out: LDH: Cytotoxicity assay EC50): < 4.30; LDH: Cytotoxicity assay % Effect ([1]; 0% FBS 4Hr): 4.017%; LDH: Cytotoxicity assay % Effect ([1]; 0% FBS 16Hr): 11.59% |
| CC(=O)N[C@@H](CCCNC(=N)N)C(=O)N[C@H](C(=O)N[C@@H](Cc1ccccc1)C(=O)N[C@]1(C)CCCCCCC=CCCC[C@@](C)(C(=O)N[C@@H](CO)C(=O)N[C@@H](C)C(=O)N[C@@H](C)C(N)=O)NC(=O)[C@H](CC2CCC2)NC(=O)[C@H](CC(C)C)NC(=O)[C@H](CCC(N)=O)NC(=O)[C@H](Cc2c[nH]c3ccccc23)NC(=O)[C@H](Cc2ccc(O)cc2)NC(=O)[C@H](CCC(=O)O)NC1=O)[C@@H](C)O [MP-191] (Ac-RTF[R8]EYWQL[Cba][S5]SAA-NH2; staple 4-11) | 222 | 2.72 | 3 (≈ 5.49 µg/mL) | < 4.30 |  |
| CC(=O)N[C@@H](CC(C)C)C(=O)N[C@H](C(=O)N[C@@H](Cc1ccccc1)C(=O)N[C@]1(C)CCCCCCC=CCCC[C@@](C)(C(=O)N[C@@H](CO)C(=O)N[C@@H](C)C(=O)N[C@@H](C)C(N)=O)NC(=O)[C@H](CC2CCC2)NC(=O)[C@H](CCCNC(=N)N)NC(=O)[C@H](CCC(N)=O)NC(=O)[C@H](Cc2c[nH]c3ccccc23)NC(=O)[C@H](Cc2ccc(O)cc2)NC(=O)[C@H](CCC(=O)O)NC1=O)[C@@H](C)O [MP-195] (Ac-LTF[R8]EYWQR[Cba][S5]SAA-NH2; staple 4-11) | 216 | 2.87 | 3 (≈ 5.49 µg/mL) | < 4.30 |  |
| CC(=O)N[C@@H](CC(C)C)C(=O)N[C@H](C(=O)N[C@@H](Cc1ccccc1)C(=O)N[C@]1(C)CCCCCCC=CCCC[C@@](C)(C(=O)N[C@@H](CCCNC(=N)N)C(=O)N[C@@H](C)C(=O)N[C@@H](C)C(N)=O)NC(=O)[C@H](CC2CCC2)NC(=O)[C@H](CC(C)C)NC(=O)[C@H](CCC(N)=O)NC(=O)[C@H](Cc2c[nH]c3ccccc23)NC(=O)[C@H](Cc2ccc(O)cc2)NC(=O)[C@H](CCC(=O)O)NC1=O)[C@@H](C)O [MP-196] (Ac-LTF[R8]EYWQL[Cba][S5]RAA-NH2; staple 4-11) | 214 | 2.77 | 3 (≈ 5.57 µg/mL) | < 4.30 |  |
| CC(=O)N[C@@H](Cc1c[nH]cn1)C(=O)N[C@H](C(=O)N[C@@H](Cc1ccccc1)C(=O)N[C@]1(C)CCCCCCC=CCCC[C@@](C)(C(=O)N[C@@H](CO)C(=O)N[C@@H](C)C(=O)N[C@@H](C)C(N)=O)NC(=O)[C@H](CC2CCC2)NC(=O)[C@H](CC(C)C)NC(=O)[C@H](CCC(N)=O)NC(=O)[C@H](Cc2c[nH]c3ccccc23)NC(=O)[C@H](Cc2ccc(O)cc2)NC(=O)[C@H](CCC(=O)O)NC1=O)[C@@H](C)O [MP-197, ATSP-7041 (L1H)] (Ac-HTF[R8]EYWQL[Cba][S5]SAA-NH2; staple 4-11) | 222 | 2.56 | 17 (≈ 30.8 µg/mL) | < 4.30 |  |
| CC(=O)N[C@@H](CC(C)C)C(=O)N[C@H](C(=O)N[C@@H](Cc1ccccc1)C(=O)N[C@]1(C)CCCCCCC=CCCC[C@@](C)(C(=O)N[C@@H](CO)C(=O)N[C@@H](C)C(=O)N[C@@H](C)C(N)=O)NC(=O)[C@H](CC2CCC2)NC(=O)[C@H](Cc2c[nH]cn2)NC(=O)[C@H](CCC(N)=O)NC(=O)[C@H](Cc2c[nH]c3ccccc23)NC(=O)[C@H](Cc2ccc(O)cc2)NC(=O)[C@H](CCC(=O)O)NC1=O)[C@@H](C)O [MP-200, ATSP-7041 (L9H)] (Ac-LTF[R8]EYWQH[Cba][S5]SAA-NH2; staple 4-11) | 219 | 2.69 | 94.5 (≈ 171 µg/mL) | < 4.30 |  |
| CC(=O)N[C@@H](Cc1ccccc1)C(=O)N[C@]1(C)CCCCCCC=CCCC[C@@](C)(C(=O)N[C@@H](CO)C(N)=O)NC(=O)[C@H](CC2CCC2)NC(=O)[C@H](CC(C)C)NC(=O)[C@H](CCC(N)=O)NC(=O)[C@H](Cc2c[nH]c3ccccc23)NC(=O)[C@H](Cc2ccc(O)cc2)NC(=O)[C@H](CCC(=O)O)NC1=O [MP-203] (Ac-F[R8]EYWQL[Cba][S5]S-NH2; staple 2-9) | 213 | 2.61 | 96 (≈ 137 µg/mL) | < 4.30 |  |
| CC(=O)N[C@@H](CC(C)C)C(=O)N[C@H](C(=O)N[C@@H](Cc1ccccc1)C(=O)N[C@]1(C)CCCCCCC=CCCC[C@@](C)(C(=O)N[C@@H](CO)C(N)=O)NC(=O)[C@H](CC2CCC2)NC(=O)[C@H](CC(C)C)NC(=O)[C@H](CCC(N)=O)NC(=O)[C@H](Cc2c[nH]c3ccccc23)NC(=O)[C@H](Cc2ccc(O)cc2)NC(=O)[C@H](CCC(=O)O)NC1=O)[C@@H](C)O [MP-204] (Ac-LTF[R8]EYWQL[Cba][S5]S-NH2; staple 4-11) | 216 | 2.81 | 15 (≈ 24.7 µg/mL) | < 4.30 |  |
| CC(=O)N[C@@H](CC(C)C)C(=O)N[C@@H](CCCNC(=N)N)C(=O)N[C@@H](Cc1ccccc1)C(=O)N[C@]1(C)CCCCCCC=CCCC[C@@](C)(C(=O)N[C@@H](CO)C(=O)N[C@@H](C)C(=O)N[C@@H](C)C(N)=O)NC(=O)[C@H](CC2CCC2)NC(=O)[C@H](CC(C)C)NC(=O)[C@H](CCC(N)=O)NC(=O)[C@H](Cc2c[nH]c3ccccc23)NC(=O)[C@H](Cc2ccc(O)cc2)NC(=O)[C@H](CCC(=O)O)NC1=O [MP-1192] (Ac-LRF[R8]EYWQL[Cba][S5]SAA-NH2; staple 4-11) | 220 | 2.79 | 3 (≈ 5.53 µg/mL) | < 4.30 |  |
| CC(=O)N[C@@H](Cc1ccccc1)C(=O)N[C@]1(C)CCCCCCC=CCCC[C@@](C)(C(=O)N[C@@H](CO)C(=O)N[C@@H](C)C(=O)N[C@@H](C)C(N)=O)NC(=O)[C@H](CC2CCC2)NC(=O)[C@H](CC(C)C)NC(=O)[C@H](CCC(N)=O)NC(=O)[C@H](Cc2c[nH]c3ccccc23)NC(=O)[C@H](Cc2ccc(O)cc2)NC(=O)[C@H](CCC(=O)O)NC1=O [MP-1202] (Ac-F[R8]EYWQL[Cba][S5]SAA-NH2; staple 2-9) | 214 | 2.59 | 15 (≈ 23.6 µg/mL) | < 4.30 |  |
| CC(=O)N[C@@H](C)C(=O)N[C@@H](C)C(=O)N[C@@H](Cc1ccccc1)C(=O)N[C@]1(C)CCCCCCC=CCCC[C@@](C)(C(=O)N[C@@H](CO)C(=O)N[C@@H](C)C(=O)N[C@@H](C)C(N)=O)NC(=O)[C@H](CC2CCC2)NC(=O)[C@H](C)NC(=O)[C@H](C)NC(=O)[C@H](Cc2c[nH]c3ccccc23)NC(=O)[C@H](Cc2ccc(O)cc2)NC(=O)[C@H](CCC(=O)O)NC1=O [MP-1207] (Ac-AAF[R8]EYWAA[Cba][S5]SAA-NH2; staple 4-11) | 224 | 2.91 | 171 (≈ 276 µg/mL) | < 4.30 |  |
| CC(=O)N[C@@H](CC(C)C)C(=O)N[C@H](C(=O)N[C@@H](Cc1ccccc1)C(=O)NC(C)(C)C(=O)N[C@@H](CCC(=O)O)C(=O)N[C@@H](Cc1ccc(O)cc1)C(=O)N[C@@H](Cc1c[nH]c2ccccc12)C(=O)N[C@@H](CCC(N)=O)C(=O)N[C@@H](CC(C)C)C(=O)N[C@@H](CC1CCC1)C(=O)NC(C)(C)C(=O)N[C@@H](CO)C(=O)N[C@@H](C)C(=O)N[C@@H](C)C(N)=O)[C@@H](C)O [MP-7189] | 199 | 2.12 | 24 (≈ 40 µg/mL) | < 4.30 |  |
